The source made the active and inactive calls.
Tests used:
[1] = molecular target: Acyl-homoserine lactone acylase PvdQ (Pseudomonas aeruginosa (strain LESB58), UniProt Q9I194); test: PvdQ acylase enzyme activity blockers – biochemical, fluorescence, plate reader and imaging, cherry-picks, dose response (AID 493231)
HeLa = test: viability loss in HeLa cells – cell-based, 24 h, cherry-picked samples, cytotoxicity control, dose response (AID 504726); assay type: functional; details: Homo sapiens;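 further: potency for cytotoxicity as loss of luminescence signal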
[2] = molecular target: Melanin-concentrating hormone receptor 1 (Homo sapiens, UniProt Q99705); test: Late-stage fluorescence-based counterscreen for antagonists of the G-protein coupled receptor 7 (GPR7): cell-based dose response assay to identify antagonists of the melanin-concentrating hormone receptor 1 (MCHR1). [Related pubchem assays (depositor defined):AID1861, AID1880, AID1952, AID2148, AID2251, AID2257, AID485339]; assay type: functional;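 further: stimulated with 30 nM MCH peptide agonist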
[3] = molecular target: Neurotensin receptor type 1 (Homo sapiens, UniProt P30989); assay type: functional;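 further: Image-based confirmatory dose-response assay measuring agonist activity at NTR1; NTR1-expressing U2OS osteosarcoma cells imaged for beta-arrestin GFP spot formation; agonist potency where compounds increase beta-arrestin recruitment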
[4] = NIH3T3 cell viability loss – ATP luminescence, mouse fibroblasts, counter-screen, dose response (AID 2010); assay type: functional, cell-based;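 further: cells exposed to compound for about 90 hours before reading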
[5] = Trypanosoma cruzi growth suppression in host cells – NIH3T3 host cells, beta-gal luminescence, confirmation (AID 2044); assay type: functional, cell-based;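 further: intracellular parasites grown in NIH/3T3 mouse fibroblasts as host cells; luminescent beta-galactosidase reporter signal from transgenic T. cruzi replicating inside host cells; inhibitors lower the luminescence signal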
[6] = molecular target: Metabotropic glutamate receptor 4 (Homo sapiens, UniProt Q14833); test: Modulation of the Metabotropic Glutamate Receptor mGluR4: Potency at human mGluR4. Modulation of intracellular Ca2+ using Fluo-4, AM, in CHO expressing recombinant receptor [Related pubchem assays (depositor defined):AID2437, AID2807]; assay type: functional, cell-based
[7] = molecular target: Metabotropic glutamate receptor 4 (Rattus norvegicus, UniProt P31423); test: Modulation of the Metabotropic Glutamate Receptor mGluR4: Rat PAM Potency. [Related pubchem assays (depositor defined):AID2437, AID2807]; assay type: functional
Cytochrome P450 2C9 = Cytochrome P450 2C9 (Homo sapiens, UniProt P11712); details: Potency
Chain of Cytochrome P450 2C9 (P11712 whole entry): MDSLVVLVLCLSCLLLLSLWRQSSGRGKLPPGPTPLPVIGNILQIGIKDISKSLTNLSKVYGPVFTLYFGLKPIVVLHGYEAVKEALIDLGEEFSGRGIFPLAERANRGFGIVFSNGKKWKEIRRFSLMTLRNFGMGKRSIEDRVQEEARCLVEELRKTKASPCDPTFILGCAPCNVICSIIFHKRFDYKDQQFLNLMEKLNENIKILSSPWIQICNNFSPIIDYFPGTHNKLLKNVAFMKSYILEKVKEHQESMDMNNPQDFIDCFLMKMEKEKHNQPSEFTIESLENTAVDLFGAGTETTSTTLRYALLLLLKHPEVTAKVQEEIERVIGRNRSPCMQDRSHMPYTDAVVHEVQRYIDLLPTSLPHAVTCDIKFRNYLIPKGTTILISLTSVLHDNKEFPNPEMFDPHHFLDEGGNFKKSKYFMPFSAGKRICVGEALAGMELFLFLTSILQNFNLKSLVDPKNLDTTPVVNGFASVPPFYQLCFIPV

Chain of Neurotensin receptor type 1 (P30989 whole entry): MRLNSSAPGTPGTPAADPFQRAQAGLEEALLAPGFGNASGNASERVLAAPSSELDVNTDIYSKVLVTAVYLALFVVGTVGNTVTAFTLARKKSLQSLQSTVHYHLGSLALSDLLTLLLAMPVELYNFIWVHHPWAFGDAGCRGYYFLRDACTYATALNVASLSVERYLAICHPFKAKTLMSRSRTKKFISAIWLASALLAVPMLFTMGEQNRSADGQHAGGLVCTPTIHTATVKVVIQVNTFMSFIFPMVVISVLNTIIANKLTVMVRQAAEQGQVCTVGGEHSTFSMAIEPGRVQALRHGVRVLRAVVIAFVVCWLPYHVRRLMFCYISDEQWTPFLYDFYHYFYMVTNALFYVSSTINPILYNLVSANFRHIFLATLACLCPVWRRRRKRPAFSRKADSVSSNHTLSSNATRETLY
Chain of Metabotropic glutamate receptor 4 (Rattus norvegicus, UniProt P31423) (P31423 whole entry): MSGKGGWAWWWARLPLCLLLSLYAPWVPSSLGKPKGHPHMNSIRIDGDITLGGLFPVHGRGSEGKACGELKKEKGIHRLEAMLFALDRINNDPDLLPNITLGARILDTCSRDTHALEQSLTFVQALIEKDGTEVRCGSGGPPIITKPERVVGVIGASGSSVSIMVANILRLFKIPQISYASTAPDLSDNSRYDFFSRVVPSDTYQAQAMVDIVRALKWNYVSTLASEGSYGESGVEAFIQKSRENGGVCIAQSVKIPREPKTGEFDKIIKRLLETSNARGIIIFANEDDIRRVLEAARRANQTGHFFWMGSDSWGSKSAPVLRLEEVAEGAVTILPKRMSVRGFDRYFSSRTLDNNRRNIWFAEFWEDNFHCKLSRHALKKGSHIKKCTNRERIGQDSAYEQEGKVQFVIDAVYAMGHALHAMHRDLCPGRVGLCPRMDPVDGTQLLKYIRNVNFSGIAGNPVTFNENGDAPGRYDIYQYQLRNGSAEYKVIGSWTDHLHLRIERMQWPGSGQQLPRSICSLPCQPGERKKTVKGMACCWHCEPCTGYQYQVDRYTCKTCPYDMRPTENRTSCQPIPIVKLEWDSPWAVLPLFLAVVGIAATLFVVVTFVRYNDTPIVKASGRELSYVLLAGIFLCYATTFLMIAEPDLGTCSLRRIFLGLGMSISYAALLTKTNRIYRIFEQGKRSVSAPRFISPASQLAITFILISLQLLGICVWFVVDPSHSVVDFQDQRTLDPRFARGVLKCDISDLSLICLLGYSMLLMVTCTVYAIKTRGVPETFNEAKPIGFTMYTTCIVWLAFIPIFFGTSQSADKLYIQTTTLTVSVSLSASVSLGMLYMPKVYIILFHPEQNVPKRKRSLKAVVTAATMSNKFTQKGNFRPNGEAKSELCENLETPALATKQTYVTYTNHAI
Chain of Acyl-homoserine lactone acylase PvdQ (Q9I194 24-193 limits assumed): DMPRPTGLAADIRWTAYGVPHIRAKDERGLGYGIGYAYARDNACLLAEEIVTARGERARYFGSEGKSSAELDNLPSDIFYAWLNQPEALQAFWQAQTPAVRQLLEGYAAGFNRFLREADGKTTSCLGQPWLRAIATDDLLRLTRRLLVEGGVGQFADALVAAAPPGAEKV
Chain of Acyl-homoserine lactone acylase PvdQ (Q9I194 217-762 limits assumed): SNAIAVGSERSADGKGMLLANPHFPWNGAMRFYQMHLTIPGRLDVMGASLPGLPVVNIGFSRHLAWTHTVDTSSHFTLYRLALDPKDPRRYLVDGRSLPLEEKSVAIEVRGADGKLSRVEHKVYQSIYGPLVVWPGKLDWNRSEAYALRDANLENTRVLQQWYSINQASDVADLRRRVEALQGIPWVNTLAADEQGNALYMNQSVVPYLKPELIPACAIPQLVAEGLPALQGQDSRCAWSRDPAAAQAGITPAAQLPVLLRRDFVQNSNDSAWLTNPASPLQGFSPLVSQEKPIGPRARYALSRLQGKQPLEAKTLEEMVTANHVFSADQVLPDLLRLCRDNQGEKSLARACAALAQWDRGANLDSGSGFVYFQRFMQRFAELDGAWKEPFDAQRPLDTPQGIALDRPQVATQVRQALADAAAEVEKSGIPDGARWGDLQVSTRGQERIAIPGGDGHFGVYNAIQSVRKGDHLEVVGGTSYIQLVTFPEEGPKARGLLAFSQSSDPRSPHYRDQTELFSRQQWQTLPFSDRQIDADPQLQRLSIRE
Chain of Metabotropic glutamate receptor 4 (Homo sapiens, UniProt Q14833) (Q14833 whole entry): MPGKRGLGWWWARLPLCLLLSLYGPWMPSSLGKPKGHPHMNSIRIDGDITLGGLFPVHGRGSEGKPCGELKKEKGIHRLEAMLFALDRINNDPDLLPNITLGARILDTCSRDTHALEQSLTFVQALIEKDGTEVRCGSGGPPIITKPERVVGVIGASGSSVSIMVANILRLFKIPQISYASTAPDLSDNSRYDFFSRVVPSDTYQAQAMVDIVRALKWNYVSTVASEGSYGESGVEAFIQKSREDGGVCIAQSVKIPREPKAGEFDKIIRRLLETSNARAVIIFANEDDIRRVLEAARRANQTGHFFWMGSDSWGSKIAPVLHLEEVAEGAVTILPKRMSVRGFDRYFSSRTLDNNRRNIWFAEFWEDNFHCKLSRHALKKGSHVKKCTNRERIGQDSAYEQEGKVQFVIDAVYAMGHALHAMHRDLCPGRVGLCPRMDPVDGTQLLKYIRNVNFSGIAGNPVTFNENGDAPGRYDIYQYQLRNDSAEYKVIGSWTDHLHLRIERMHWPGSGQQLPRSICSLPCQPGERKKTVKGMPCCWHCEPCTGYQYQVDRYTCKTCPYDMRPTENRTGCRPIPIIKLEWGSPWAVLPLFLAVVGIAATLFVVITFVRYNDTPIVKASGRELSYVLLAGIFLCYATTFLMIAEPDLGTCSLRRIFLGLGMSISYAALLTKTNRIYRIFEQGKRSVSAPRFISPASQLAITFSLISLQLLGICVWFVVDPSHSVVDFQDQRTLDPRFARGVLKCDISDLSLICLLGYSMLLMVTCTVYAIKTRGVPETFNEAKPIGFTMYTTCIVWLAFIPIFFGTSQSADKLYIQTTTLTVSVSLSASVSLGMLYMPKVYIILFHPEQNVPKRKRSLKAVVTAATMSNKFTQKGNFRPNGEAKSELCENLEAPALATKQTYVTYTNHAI
Chain of Melanin-concentrating hormone receptor 1 (Q99705 whole entry): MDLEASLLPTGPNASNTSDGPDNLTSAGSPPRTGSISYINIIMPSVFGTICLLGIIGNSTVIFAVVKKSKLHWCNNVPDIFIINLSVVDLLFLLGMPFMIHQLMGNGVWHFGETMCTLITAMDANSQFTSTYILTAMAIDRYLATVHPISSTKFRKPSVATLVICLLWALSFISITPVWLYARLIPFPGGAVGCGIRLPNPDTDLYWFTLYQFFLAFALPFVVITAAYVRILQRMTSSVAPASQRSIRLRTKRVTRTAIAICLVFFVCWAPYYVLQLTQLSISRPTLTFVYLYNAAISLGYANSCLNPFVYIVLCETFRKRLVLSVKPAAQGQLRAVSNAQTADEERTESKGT

SMILES: N#CC(OC(=O)c1ccccc1)c1cccc([N+](=O)[O-])c1 (centres undefined)
- AC50 [1]: 7.45 µM (active)

SMILES: O=c1c2ccccc2nc(/C=C\c2ccccc2[N+](=O)[O-])n1-c1ccccc1O
- AC50 (HeLa): 94.2 µM (active)

SMILES: COc1ccc(Oc2c(Cl)cnn(-c3cccc(C(F)(F)F)c3)c2=O)cc1
- IC50 [2]: 2.6 µM (active)

SMILES: O=C(Nc1ccc([N+](=O)[O-])cc1)Nc1ccc(N2CCOCC2)c2nonc12
- EC50 [3]: > 40 µM (inactive)
- EC50 [4]: > 30 µM (not active)
- EC50 [5]: 3.77 µM (active)

SMILES: O=C(Nc1ccc(Cl)c(Cl)c1)c1ccno1
- EC50 [6]: 11.8 µM (active)
- EC50 [7]: 11.1 µM (active)

SMILES: COC(=O)C12CC3(CCC4C5C(C(OCc6ccccc6)C41)C52)OCCO3 (centres undefined)
- AC50 (Cytochrome P450 2C9): 5.01 µM (inconclusive)
